# Measured values published in a melting point compilation (Tetko et al.; mined from patent text by program, amines drawn as free bases though some values may be those of a salt).
row,SMILES,melting point [°C]
1,Cc1ccc(C(=O)Nc2ccccc2)cc1NC(=O)c1cc(Cl)cc(Cl)c1,202 to 205
2,CC(C)(C)c1cc(-c2csc(CNc3ccccc3)n2)cc(C(C)(C)C)c1O,147 to 148
3,N#Cc1ccc(C2(CBr)OCCO2)cc1,92.4
4,O=C(NC(Cc1ccc(F)cc1)C(=O)O)c1cn2cc(-c3ccc(Cl)cc3)ccc2n1 (stereo not drawn),266
5,Oc1ccccc1NC(=S)NCc1ccncc1,180
6,O=C(O)Cc1c(C(=O)c2ccc(Cl)cc2)[nH]c2ccccc12,221 to 224
7,CCCc1c2c(c(NCC)c3c(=O)cc(C(=O)OCC)oc13)CCCC2,91.5
8,COC(OC)c1ccc2c(c1)C(C)(C)C(=O)CC2(C)C,91 to 92
9,COC(=O)c1cc(Br)ccc1O,59 to 61.5
10,COc1cc(-c2nnc(C)s2)cc2oc(=O)c(Cl)c(C)c12,176 to 177
11,O=Cc1cc2c(cc1O)CCO2,102 to 104
12,Cc1nc2cc(C3CCc4cncn43)ccc2[nH]1 (stereo not drawn),230
13,COc1ccc(CNc2nc(-c3ccc(C(=O)O)cc3)nc3sc(C(F)(F)F)cc23)cc1OC,250
14,O=Cc1cccc(-c2cccc3ccccc23)n1,65 to 66
15,CN(NC(=O)OC(C)(C)C)C(=O)OCc1ccccc1,60 to 65
16,CC(C)(C(=O)c1ccc(Cl)cc1)n1cncn1,111
17,CCOCc1nc2c(N)nc(C)c(C)c2n1NCCCNC(=O)NC(C)C,203 to 205
18,Cc1cccc(C)c1N1CCN(CCNc2cnn(C)c(=O)c2Cl)CC1,235 to 242
19,COC(=O)Cn1c(C(=O)Nc2nc(-c3cc(OC)c(C)cc3OC)c(CCC3CCCCC3)s2)cc2cc(C)cc(C)c21,154 to 162
20,CCn1nc2c(N)nc3ccccc3c2c1CC(C)(C)N,234 to 235
21,O=C(CCS(=O)(=O)CCOCCc1ccccc1)NCCc1ccc(O)c2[nH]c(=O)sc12,142 to 144
22,COc1cc2c3c(c1)nc(-c1ccccc1)n3CCC2=NO,235 to 238
23,C=C(Br)CCC(=O)NC(C(=O)OCC)C(=O)OCC,85 to 87
24,CC(C)(C)OC(=O)CCc1cc(C#N)nc(-c2nc(=O)c3ccccc3s2)c1,190 to 191
25,CN(C)CC#CC1=Cc2ccccc2Sc2ccc(Cl)cc21,118 to 120
26,CCOC(=O)Cc1c(SC)c2cc(F)ccc2n1Cc1ccc(Cl)cc1,118 to 119

row,SMILES,melting point [°C]
1,CCc1[nH]n(C2CCCC2)c2nc(-c3cccc(OCCN4CCCCC4)c3)nc(=O)c1-2,180
2,O=C(OCC1OC(OCc2ccccc2)C(OCc2ccccc2)C(OCc2ccccc2)C1OCc1ccccc1)c1ncc[nH]1 (stereo not drawn),105 to 108
3,CCOCC1=NC(=Cc2cccs2)C(=O)O1,102
4,NC(=S)c1ncn2c1[C@@H]1CCN1C(=O)c1ccccc1-2,227 to 230
5,CC(C)CC(NC(=O)c1ccc(Cl)cc1)NC(=NC#N)Nc1cccnc1 (stereo not drawn),193 to 194
6,CC(C)(CCCc1cccnc1)NC(=O)/C=C/C=C(c1ccc(F)cc1)c1ccc(F)cc1,164
7,Cc1cc(OCc2ccccc2)cc(OCC2CCCCC2)c1C(=O)O,127 to 128
8,COc1cc2c(=O)cc[nH]c2cc1OCc1ccccc1,235 to 236
9,COC1CSC2=C(SC1)C(OC(=O)N1CCN(C)CC1)N(c1ccc3ccc(C)nc3n1)C2=O (stereo not drawn),220
10,CCCCCCCCCCCc1coc(NC(=O)Nc2c(C(C)C)cccc2C(C)C)n1,104 to 108
11,COc1ccc(-c2cc(=O)c3cc(OCCCCCCN4CCC(O)CC4)ccc3o2)cc1,134 to 135
12,CCOC(=O)Nc1cc2c(cc1F)nc(C(F)(F)F)n2Cc1cccc(Cl)c1,144 to 146
13,CC(C)c1csc2[nH]cc(C#N)c(=O)c12,285
14,Cc1c(C(=O)O)cnn1-c1nc(-c2cccc(C(F)(F)F)c2)cs1,227 to 228
15,COC1(c2ccc(Sc3ccc4c(ccc(=O)n4C)c3)s2)CCOCC1,119 to 120
16,COc1cccc2sc(C(N)=O)c(N)c12,151 to 153
17,CCCc1cnc2c(c1)C(=O)OC2=O,42 to 44
18,c1cncc(CCCN2CCc3[nH]c4ccccc4c3C2)c1,223 to 225
19,CCC(Oc1ccc(Cl)c(C(F)(F)F)c1)C(=O)NCc1ccccc1 (stereo not drawn),93 to 95
20,COC(=O)C1=C(C)NC2=C(C1c1cccc([N+](=O)[O-])c1)S(=O)(=O)CCC2 (stereo not drawn),236 to 238
21,CC(C)(C)c1cc(C(=O)O)c(Cl)c(C(=O)O)c1,250
22,O=C1NCCc2c(-c3ccc4ccccc4c3)[nH]c3cccc1c23,261 to 262
23,CN1Cc2c(C(=O)OC(C)(C)C)ncn2-c2ccc(F)cc2C1=O,228 to 229
24,O=C(Nc1ccc2[nH]c(=O)[nH]c2c1)C(=O)N1CCC(Cc2ccc(Cl)cc2)CC1,299 to 300
25,COc1ccc(C(=O)Nc2cc(NC(=O)c3ccc(O)cc3)ccc2C)cc1OC,258 to 259
26,c1cc2c3c(c1)NCC3CCC2 (stereo not drawn),58 to 59

row,SMILES,melting point [°C]
1,O=Cc1c2ccccc2c(OCCO)c2ccccc12,142 to 144
2,COc1ccc(-c2[nH]nc3c2C(=O)c2c(NC(=O)CN4CCSCC4)cccc2-3)cc1,298
3,COC(=O)CSc1ccc(OC)cc1C(=O)OC,55 to 57
4,O=S1CCN(c2nc(N3CCNCC3)cc3ccc(Cl)cc23)CC1,209 to 211
5,CNC(=O)c1ccc(-c2cccc3nc(Nc4cc(OC)c(OC)c(OC)c4)oc23)cc1,258 to 259
6,COc1ccc2[nH]cc(C3CCN(C(=O)NCC4CCC(c5ccccc5)(N(C)C)CC4)CC3)c2c1 (stereo not drawn),98 to 100
7,CC(C)NC(=S)N1CCc2nc(N)sc2C1,179 to 180
8,COc1ccc(CCCCc2ccc(OC)c(OC)c2OC)cc1OC,165 to 167
9,CSc1nc(NCc2ccc(Br)cc2)n2ncc(C(C)C)c2n1,171 to 172
10,COc1ccc2nc(Cl)c(OC)nc2c1,79 to 81
11,COC1=C(OC)C(=O)C(CO)=C(C)C1=O,52 to 54
12,CCCCC1CSC(C(=O)Nc2c(SC)cc(C)nc2SC)c2cc(OC)c(OC)cc2C1 (stereo not drawn),143 to 145
13,Cn1nc(N)nc1NCCCOc1cccc(CNCc2ccccc2)c1,90 to 91
14,CCN(CCCc1c[nH]c2ccc(F)cc12)C1COc2c(F)ccc(C(=O)NC)c2C1 (stereo not drawn),118
15,Nc1cccc(Oc2cccc(Oc3cccc(N)c3)c2)c1,105 to 107
16,O=C(Cc1ccc(Cl)cc1)Nc1ccc(O)cc1O,178 to 179
17,CCCCCCCCOc1ccc(-c2ncc(OC(=O)[C@H]3CCCO3)cn2)cc1,90
18,C(#Cc1cc2ccccc2s1)c1ccc(-c2ccccc2)s1,185 to 186
19,CC(C)(C)[Si](C)(C)OCc1ccc(C(=NO)C(F)(F)F)cc1,63 to 65
20,COC(=O)c1cc(CCN(C)CCCC(C#N)(c2ccc(OC)c(OC)c2)C(C)C)ccc1OC (stereo not drawn),76 to 81
21,Cc1ccnc(C(=O)c2[nH]c3ccc(Cl)cc3c2CC(=O)O)c1C,236 to 237
22,CC(CCCC(C)(C)O)C1CCC2C3CCC4(O)CC(=O)CCC4(C)C3CCC12C (stereo not drawn),215 to 217
23,O=C(NC(=O)c1c(F)cccc1F)Nc1ccc(SC(F)(F)C(F)F)cc1F,177 to 179
24,CN(C)C(=O)c1ccc(CN(C)C(=O)C23CC4CC(CC(C4)C2)C3)s1,145 to 146
25,C#CCOc1cc(Oc2ccccc2Cl)ncn1,76.2
26,CC(C=O)Cc1cc(C(C)(C)C)c(O)c(C(C)(C)C)c1 (stereo not drawn),162 to 164

row,SMILES,melting point [°C]
1,O=C(O)Cc1c(C(=O)c2cc(CO)ccn2)[nH]c2cc(Cl)ccc12,210 to 212
2,COc1ccnc(CCc2ccnc(N)c2N)c1,89 to 91
3,CNC(C)C(=O)Nc1cccc2c1C(=O)c1c(NC(=O)C(C)NC)cccc1C2=O (stereo not drawn),233 to 234
4,CCOC(=O)c1cc2nc(C)nc-2[nH]c1C(=O)OCC,164 to 165
5,COc1ccc2[nH]c(SCc3nccc(N4CCCC4)c3Cl)nc2c1,131 to 133
6,COc1ccc(Cl)cc1-c1c(N)c(=O)[nH]c2cc(C(F)(F)F)c(Cl)cc12,252 to 253
7,CSc1ccc(C(=O)Nc2cc(-c3c(-c4ccc(F)c(C)c4)nc4cccnn34)ccn2)cc1,191 to 192
8,CC(C)C1(C)N=C2c3ncc(C4OCCO4)cc3C(=O)N2C1=O (stereo not drawn),102 to 104
9,CC(=O)Oc1ccc(N=c2scc(-c3ccc(Cl)c(S(=O)(=O)N(C)C)c3)n2C)cc1,173 to 174
10,CNS(=O)(=O)c1cnc2c(OC)c(OC)c(OC)cc2c1O,254 to 255
11,Cc1cc(OCC(=O)O)c2c(c1C)-c1nc(SCCC(c3ccccc3)c3ccccc3)sc1C2,142 to 144
12,CCOC(=O)c1ncn2c(C(F)(F)F)cc(-c3ccc(C(F)(F)F)cc3)nc12,243
13,COCC(=O)N(c1c(C)cccc1C)C1CCOC1=O (stereo not drawn),118 to 120
14,CN1CN(C)C(=S)N(c2ccccc2)C1,85 to 87
15,CCOC(=O)C(=O)Nc1cc(OC)ccc1[N+](=O)[O-],158
16,O=C(NCCc1ccccc1Cl)c1c(Cl)ccc2nc(N3CC[C@H](NCCO)C3)ccc12,170 to 172
17,N#Cc1ccc2c(c1)C(=O)NC(C(Cl)(Cl)Cl)O2 (stereo not drawn),212 to 214
18,CC(=O)SCC(CC(C)C)C(=O)NCCN1CCOCC1 (stereo not drawn),54 to 59
19,COc1ccc(N2CCOCC2)c2sc(-c3nc4ccc(N5CCCC5)nc4[nH]3)nc12,264 to 268
20,COc1cc(COc2nn(C)cc2C(N)=O)ccc1OCc1nc(-c2ccccc2)oc1C,168 to 169
21,Nc1nccnc1-c1cc(Cl)cc(Cl)c1Cl,142 to 143
22,COC(=O)CCc1ccc(-n2c(-c3ccccc3)nn(-c3ccc(C#N)cc3)c2=O)cc1,190 to 194
23,COC(=O)C(Cc1ccccc1)NC(=O)C(N)(CC(=O)O)C(=O)N1CCCCC1 (stereo not drawn),225 to 227
24,O=C1C(=Cc2ccsc2)CCc2cc(OCCc3c[nH]cn3)ccc21,94 to 96
25,CCCC(=O)Nc1n[nH]c2cc(Cl)c(-c3ccccc3)cc12,235
